Results on 4 compounds are retold here after ChEMBL document CHEMBL3813616, “Discovery of novel 7-azaindoles as PDK1 inhibitors” (Bioorg Med Chem Lett, 2016).

As a reminder, the IC50 is the concentration at which inhibition is half-maximal.

Assay [1] concerns the target Serine/threonine-protein kinase pim-2 (Homo sapiens) (UniProt Q9P1W9). Kind of assay: Inhibition of human PIM2 (2 to 334 residues) assessed as enzyme activity at 1 uM using 33P ATP by radioactive filter binding assay. Also on record: scale not given: the % may be the effect or the level left.
Assay [2] concerns the target T1, 3-phosphoinositide-dependent protein kinase 1 (Homo sapiens, UniProt O15530).
T1 sequence (O15530 whole entry): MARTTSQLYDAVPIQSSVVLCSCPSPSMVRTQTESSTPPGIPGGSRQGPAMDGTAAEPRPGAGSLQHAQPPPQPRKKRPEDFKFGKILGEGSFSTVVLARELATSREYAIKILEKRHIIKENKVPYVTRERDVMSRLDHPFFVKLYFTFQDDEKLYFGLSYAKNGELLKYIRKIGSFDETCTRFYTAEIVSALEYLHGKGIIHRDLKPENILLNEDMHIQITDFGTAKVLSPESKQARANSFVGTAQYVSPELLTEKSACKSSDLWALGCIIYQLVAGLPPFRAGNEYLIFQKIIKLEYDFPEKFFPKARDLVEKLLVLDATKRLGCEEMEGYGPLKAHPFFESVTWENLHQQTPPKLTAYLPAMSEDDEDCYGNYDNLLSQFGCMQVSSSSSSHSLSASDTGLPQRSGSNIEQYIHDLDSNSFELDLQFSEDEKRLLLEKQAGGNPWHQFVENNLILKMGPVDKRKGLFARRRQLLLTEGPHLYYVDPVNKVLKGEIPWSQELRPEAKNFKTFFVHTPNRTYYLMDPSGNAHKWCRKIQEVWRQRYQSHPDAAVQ
The experiment in a line: Inhibition of human His6-tagged PDK1 using biotinylated PDKtide as substrate after 60 mins by topcount method.

Assay [3] has as its target MAP kinase-interacting serine/threonine-protein kinase 2 (Homo sapiens) (UniProt Q9HBH9). Kind of assay: Inhibition of human MNK2alpha (2 to 465 residues) assessed as enzyme activity at 1 uM using 33P ATP by radioactive filter binding assay. Also on record: scale not given: the % may be the effect or the level left.
Assay [4] has as its target T1, 3-phosphoinositide-dependent protein kinase 1. The experiment in a line: Inhibition of PDK1 in human PC3 cells assessed as reduction in AKT Thr308 phosphorylation after 45 mins. Type of assay: cell-based, PC-3.
For assay [5], the target named is T2, Eukaryotic elongation factor 2 kinase (Homo sapiens) (UniProt O00418).
T2 sequence (whole entry): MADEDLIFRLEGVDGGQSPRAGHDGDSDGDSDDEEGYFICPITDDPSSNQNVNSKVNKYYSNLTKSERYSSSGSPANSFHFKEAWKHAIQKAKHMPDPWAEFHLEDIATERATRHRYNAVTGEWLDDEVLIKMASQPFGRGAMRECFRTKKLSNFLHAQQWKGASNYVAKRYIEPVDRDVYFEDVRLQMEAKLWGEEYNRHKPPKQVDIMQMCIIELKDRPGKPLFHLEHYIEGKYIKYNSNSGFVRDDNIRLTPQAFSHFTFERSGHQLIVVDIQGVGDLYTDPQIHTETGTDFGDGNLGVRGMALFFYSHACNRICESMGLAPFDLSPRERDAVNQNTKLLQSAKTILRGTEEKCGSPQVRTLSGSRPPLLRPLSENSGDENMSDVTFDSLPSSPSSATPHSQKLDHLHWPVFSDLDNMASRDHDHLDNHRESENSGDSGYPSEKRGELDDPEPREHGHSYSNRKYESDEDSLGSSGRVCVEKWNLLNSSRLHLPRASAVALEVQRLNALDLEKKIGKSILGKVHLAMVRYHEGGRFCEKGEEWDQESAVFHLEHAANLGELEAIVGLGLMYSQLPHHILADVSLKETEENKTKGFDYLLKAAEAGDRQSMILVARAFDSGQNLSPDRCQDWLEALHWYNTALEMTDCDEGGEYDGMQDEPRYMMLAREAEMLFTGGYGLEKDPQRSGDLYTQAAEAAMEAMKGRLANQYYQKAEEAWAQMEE
The experiment in a line: Inhibition of human EF2K (2 to 725 residues) assessed as enzyme activity at 1 uM using 33P ATP by radioactive filter binding assay. Also on record: scale not given: the % may be the effect or the level left.

Assay [6] concerns the target T3, Inhibitor of nuclear factor kappa-B kinase subunit epsilon (Homo sapiens) (UniProt Q14164).
T3 sequence (whole entry): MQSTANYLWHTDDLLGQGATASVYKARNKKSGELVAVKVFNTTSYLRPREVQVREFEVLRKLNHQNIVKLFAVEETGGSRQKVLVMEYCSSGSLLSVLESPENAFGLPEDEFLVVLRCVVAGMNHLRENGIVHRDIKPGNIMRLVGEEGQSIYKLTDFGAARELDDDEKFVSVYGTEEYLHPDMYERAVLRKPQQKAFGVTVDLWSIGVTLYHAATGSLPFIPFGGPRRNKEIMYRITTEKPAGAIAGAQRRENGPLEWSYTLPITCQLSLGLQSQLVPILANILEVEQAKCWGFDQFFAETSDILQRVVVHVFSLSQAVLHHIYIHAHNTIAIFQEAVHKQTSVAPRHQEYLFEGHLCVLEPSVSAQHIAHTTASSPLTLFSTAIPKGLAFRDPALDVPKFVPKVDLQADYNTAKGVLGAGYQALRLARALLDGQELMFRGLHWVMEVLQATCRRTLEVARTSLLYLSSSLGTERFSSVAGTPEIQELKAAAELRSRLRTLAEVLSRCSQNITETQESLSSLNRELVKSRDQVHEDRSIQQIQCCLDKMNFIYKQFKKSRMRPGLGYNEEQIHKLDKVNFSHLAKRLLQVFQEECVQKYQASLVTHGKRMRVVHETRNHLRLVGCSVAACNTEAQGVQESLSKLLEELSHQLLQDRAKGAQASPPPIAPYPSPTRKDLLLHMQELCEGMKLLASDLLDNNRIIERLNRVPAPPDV
Kind of assay: Inhibition of human IKBKE (1 to 716 residues) assessed as enzyme activity at 1 uM using 33P ATP by radioactive filter binding assay. Also on record: scale not given: the % may be the effect or the level left.

Assay [7] deals with Myosin light chain kinase, smooth muscle (Homo sapiens) (UniProt Q15746). The experiment in a line: Inhibition of human smMLCK (475 to 838 residues) assessed as enzyme activity at 1 uM using 33P ATP by radioactive filter binding assay. Also on record: scale not given: the % may be the effect or the level left.
Assay [8] deals with Calcium/calmodulin-dependent protein kinase type 1 (Homo sapiens) (UniProt Q14012). Kind of assay: Inhibition of human CAMK1 (2 to 369 residues) assessed as enzyme activity at 1 uM using 33P ATP by radioactive filter binding assay. Also on record: scale not given: the % may be the effect or the level left.
The target in assay [9] is Aurora kinase B (Homo sapiens) (UniProt Q96GD4). The experiment in a line: Inhibition of human Aurora B (1 to 344 residues) assessed as enzyme activity at 1 uM using 33P ATP by radioactive filter binding assay. Also on record: scale not given: the % may be the effect or the level left.
Aurora kinase B (Homo sapiens), sequence (Q96GD4 whole entry, the tested form may be a part): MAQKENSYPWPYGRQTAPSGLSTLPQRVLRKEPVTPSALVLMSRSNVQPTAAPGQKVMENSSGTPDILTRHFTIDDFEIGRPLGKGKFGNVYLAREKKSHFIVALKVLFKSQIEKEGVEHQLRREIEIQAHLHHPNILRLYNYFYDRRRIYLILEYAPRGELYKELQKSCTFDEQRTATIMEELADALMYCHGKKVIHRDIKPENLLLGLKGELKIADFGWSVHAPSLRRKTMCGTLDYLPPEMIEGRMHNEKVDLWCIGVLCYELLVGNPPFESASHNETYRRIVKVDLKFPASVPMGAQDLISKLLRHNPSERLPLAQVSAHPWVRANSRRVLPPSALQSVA

MAP kinase-interacting serine/threonine-protein kinase 2 (Homo sapiens), sequence (Q9HBH9 whole entry, looked up, the tested form may be a part): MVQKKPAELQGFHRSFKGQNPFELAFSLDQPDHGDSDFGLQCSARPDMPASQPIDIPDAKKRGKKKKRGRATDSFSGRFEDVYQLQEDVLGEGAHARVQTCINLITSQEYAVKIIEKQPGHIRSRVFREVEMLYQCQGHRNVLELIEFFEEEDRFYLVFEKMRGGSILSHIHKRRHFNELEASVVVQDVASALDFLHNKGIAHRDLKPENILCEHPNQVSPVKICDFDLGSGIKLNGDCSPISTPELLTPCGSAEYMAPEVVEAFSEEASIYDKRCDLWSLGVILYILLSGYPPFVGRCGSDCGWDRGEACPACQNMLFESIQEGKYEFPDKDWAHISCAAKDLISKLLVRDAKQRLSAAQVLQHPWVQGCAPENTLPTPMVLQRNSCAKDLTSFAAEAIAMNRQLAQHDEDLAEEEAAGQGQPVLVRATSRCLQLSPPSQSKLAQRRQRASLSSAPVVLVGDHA
Calcium/calmodulin-dependent protein kinase type 1 (Homo sapiens), sequence (Q14012 whole entry, looked up, the tested form may be a part): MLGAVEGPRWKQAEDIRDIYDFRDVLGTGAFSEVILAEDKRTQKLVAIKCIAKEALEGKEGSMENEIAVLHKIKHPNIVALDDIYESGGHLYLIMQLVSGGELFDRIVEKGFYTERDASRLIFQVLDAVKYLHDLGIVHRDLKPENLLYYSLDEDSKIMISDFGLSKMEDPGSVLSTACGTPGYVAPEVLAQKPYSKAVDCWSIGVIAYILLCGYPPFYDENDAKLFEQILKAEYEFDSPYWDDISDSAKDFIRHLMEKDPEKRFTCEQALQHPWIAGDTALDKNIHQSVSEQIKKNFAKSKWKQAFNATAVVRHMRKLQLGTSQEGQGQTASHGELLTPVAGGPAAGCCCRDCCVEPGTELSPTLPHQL
Serine/threonine-protein kinase pim-2 (Homo sapiens), sequence (Q9P1W9 whole entry, looked up, the tested form may be a part): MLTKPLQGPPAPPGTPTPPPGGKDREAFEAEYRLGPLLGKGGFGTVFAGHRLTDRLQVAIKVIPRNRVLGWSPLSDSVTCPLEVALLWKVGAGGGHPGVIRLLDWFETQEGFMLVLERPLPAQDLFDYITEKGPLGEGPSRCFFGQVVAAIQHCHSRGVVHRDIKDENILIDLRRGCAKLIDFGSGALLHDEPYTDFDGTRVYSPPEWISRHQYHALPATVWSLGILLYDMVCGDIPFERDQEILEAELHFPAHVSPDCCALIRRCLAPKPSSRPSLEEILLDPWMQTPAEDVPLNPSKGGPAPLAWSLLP
Myosin light chain kinase, smooth muscle (Homo sapiens), sequence (Q15746 whole entry, the tested form may be a part): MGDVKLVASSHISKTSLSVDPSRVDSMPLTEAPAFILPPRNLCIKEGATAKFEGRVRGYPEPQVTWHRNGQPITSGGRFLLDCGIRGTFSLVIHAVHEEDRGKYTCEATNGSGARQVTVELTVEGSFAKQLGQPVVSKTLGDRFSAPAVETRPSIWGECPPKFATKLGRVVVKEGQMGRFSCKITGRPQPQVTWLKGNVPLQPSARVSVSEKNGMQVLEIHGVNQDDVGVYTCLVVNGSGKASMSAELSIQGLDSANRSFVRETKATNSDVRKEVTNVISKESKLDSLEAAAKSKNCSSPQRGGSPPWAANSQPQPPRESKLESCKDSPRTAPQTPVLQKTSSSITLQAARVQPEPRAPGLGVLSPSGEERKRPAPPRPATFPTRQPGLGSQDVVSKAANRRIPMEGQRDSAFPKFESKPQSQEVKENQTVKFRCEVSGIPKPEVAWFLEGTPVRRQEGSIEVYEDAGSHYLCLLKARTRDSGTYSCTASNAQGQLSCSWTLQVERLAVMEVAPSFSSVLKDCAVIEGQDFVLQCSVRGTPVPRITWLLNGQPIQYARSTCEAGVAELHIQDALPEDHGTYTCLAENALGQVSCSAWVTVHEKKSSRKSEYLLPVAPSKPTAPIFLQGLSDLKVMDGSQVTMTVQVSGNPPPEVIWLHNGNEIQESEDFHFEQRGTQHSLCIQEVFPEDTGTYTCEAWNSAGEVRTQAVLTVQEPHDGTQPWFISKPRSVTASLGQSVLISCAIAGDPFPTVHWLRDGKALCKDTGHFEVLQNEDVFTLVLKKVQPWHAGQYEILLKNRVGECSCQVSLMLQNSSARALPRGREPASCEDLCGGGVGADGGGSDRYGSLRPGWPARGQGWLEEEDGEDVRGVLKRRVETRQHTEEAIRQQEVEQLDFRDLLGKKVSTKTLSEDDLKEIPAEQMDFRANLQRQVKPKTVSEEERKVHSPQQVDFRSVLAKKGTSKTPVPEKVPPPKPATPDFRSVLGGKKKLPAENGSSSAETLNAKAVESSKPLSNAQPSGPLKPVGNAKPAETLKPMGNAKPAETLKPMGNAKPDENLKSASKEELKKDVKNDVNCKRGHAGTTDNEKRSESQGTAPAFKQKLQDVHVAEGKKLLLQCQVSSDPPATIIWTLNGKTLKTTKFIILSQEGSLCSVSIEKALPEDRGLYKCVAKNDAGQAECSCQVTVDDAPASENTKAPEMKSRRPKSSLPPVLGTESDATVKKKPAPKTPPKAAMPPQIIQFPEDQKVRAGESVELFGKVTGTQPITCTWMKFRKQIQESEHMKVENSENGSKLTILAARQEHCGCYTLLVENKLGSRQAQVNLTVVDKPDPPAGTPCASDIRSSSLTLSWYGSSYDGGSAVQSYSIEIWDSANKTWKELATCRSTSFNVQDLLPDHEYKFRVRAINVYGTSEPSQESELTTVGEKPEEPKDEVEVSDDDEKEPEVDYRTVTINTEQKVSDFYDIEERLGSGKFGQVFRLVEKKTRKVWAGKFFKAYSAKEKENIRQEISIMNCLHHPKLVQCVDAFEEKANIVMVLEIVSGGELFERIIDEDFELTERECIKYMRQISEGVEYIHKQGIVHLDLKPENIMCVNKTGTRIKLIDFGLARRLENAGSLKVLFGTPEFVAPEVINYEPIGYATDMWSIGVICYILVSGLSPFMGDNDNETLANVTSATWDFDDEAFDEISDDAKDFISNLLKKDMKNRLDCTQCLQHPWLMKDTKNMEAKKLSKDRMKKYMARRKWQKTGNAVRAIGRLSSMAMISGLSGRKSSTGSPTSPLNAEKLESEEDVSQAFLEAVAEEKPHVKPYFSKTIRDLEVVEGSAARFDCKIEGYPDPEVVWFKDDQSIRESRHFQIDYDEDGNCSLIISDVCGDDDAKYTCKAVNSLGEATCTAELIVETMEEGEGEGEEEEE

For the compound `CCCCc1cc(-c2c[nH]c3ncc(-c4cnn(C5CCNCC5)c4)cc23)nc(N)n1`, the Activity was -98% in assay [1]; -42% in assay [3]; -31% in [5]; -91% in assay [6]; -72% in assay [7]; -60% in assay [8]. Moreover, in [9], the Activity is -62%. For the same compound, the IC50 in assay [2] came out at 84 nM; in assay [4] it was 2300 nM.
As for `Nc1nccc(-c2c[nH]c3ncccc23)n1` [MERIOLIN 1], the Activity in [1] is -39%; in assay [3], -35%; in assay [5], -20%; in [6], -22%; in assay [7] it was -35%; in [8], -6%. The Activity in assay [9] was -31%. In addition, the values for the IC50 in [2] and in assay [4] were 5900 nM and greater than 10000 nM, respectively.
For `CCCCc1cc(-c2c[nH]c3ncccc23)nc(N)n1`, the Activity in assay [1] is -25%; in [3], -15%; in [5], -1%; in assay [6], -48%; in assay [7], -10%; in assay [8] it was -3%. Moreover, the Activity in [9] was -16%. Besides, the IC50 is 1100 nM in assay [2] and greater than 10000 nM in assay [4].
For the compound `CCc1cc(-c2c[nH]c3ncc(-c4cnn(C5CCNCC5)c4)cc23)nc(N)n1`, the Activity was -87% in assay [1]; -49% in assay [3]; 3% in [5]; -78% in assay [6]; -40% in assay [7]; -49% in assay [8]. In addition, the IC50 came to 58 nM in [2] and 13000 nM in assay [4].
